Data reported in US8617562B2, “FOXM1 peptides and immunogenic compositions containing them” (OncoTherapy Science, Inc., priority 2009, dated 2013).
Entries after “also recorded” stand apart in the source; their conditions may differ. Square brackets hold non-standard residues; d marks the D form. Ends that are not written are not given here.

How the values were obtained:
[1] = system: peptide-pulsed TISI cells; experiment: IFN-gamma ELISA assay of CTL clones established by limiting dilution; assay type: cell-based, human; conditions: peptide-pulsed target cells vs not pulsed
Procedure: The dilutions were made to have 0.3, 1, and 3 CTLs/well in 96 round-bottomed micro titer plate (Nalge Nunc International). CTLs were cultured with 1×10^4 cells/well of 2 kinds of human B-lymphoblastoid cell lines, 30 ng/ml of anti-CD3 antibody, and 125 U/ml of IL-2 in a total of […] of AIM-V Medium containing 5% AS. 50 micro-1/well of IL-2 were added to the medium 10 days later so to reach a final concentration of 125 U/ml IL-2. CTL activity was tested on the 14th day, and CTL clones were expanded using the same method as described above (Uchida N et al., Clin Cancer Res 2004 Dec. 15, 10(24): 8577-86; Suda T et al., Cancer Sci 2006 May, 97(5): 411-9; Watanabe T et al., Cancer Sci 2005 August, 96(8): 498-506).
(§1) Specifically, peptide-pulsed TISI (1×10^4 cells/well) was prepared as stimulator cells. Cultured cells in 48 wells were used as responder cells. IFN-gamma ELISPOT assay and IFN-gamma ELISA assay were performed under manufacture procedure.
(§2) CTL activity of those CTL lines was determined by IFN-gamma ELISA assay (FIGS. 2a-d). […] Furthermore, CTL clones were established by limiting dilution from the CTL lines, and IFN-gamma production from CTL clones against target cells pulsed peptide was determined by IFN-gamma ELISA assay.

[2] = system: peptide-pulsed TISI cells; experiment: IFN-gamma ELISPOT assay on CTLs induced with FOXM1 peptides; assay type: cell-based, human; conditions: target cells pulsed with the peptide vs not pulsed, day 21 after 3rd stimulation
Description: Monocyte-derived dendritic cells (DCs) were used as antigen-presenting cells to induce cytotoxic T lymphocyte (CTL) responses against peptides presented on human leukocyte antigen (HLA). DCs were generated in vitro as described elsewhere (Nakahara S et al., Cancer Res 2003 Jul. 15, 63(14): 4112-8). Specifically, peripheral blood mononuclear cells (PBMCs) isolated from a normal volunteer (HLA-A*2402 positive) by Ficoll-Plaque (Pharmacia) solution were separated by adherence to a plastic tissue culture dish (Becton Dickinson) so as to enrich them as the monocyte fraction. The monocyte-enriched population was cultured in the presence of 1000 U/ml of granulocyte-macrophage colony-stimulating factor (R&D System) and 1000 U/ml of interleukin (IL)-4 (R&D System) in AIM-V Medium (Invitrogen) containing 2% heat-inactivated autologous serum (AS). After 7 days of culture, the cytokine-induced DCs were pulsed with 20 micro-g/ml of each of the synthesized peptides in the presence of 3 micro-g/ml of beta2-microglobulin for 3 hrs at 37 degrees C. in AIM-V Medium. The generated cells appeared to express DC-associated molecules, such as CD80, CD83, CD86 and HLA class II, on their cell surfaces (data not shown). These peptide-pulsed DCs were then inactivated by X-irradiation (20 Gy) and mixed at a 1:20 ratio with autologous CD8+ T cells, obtained by positive selection with CD8 Positive Isolation Kit (Dynal). These cultures were set up in 48-well plates (Corning); each well contained 1.5×10^4 peptide-pulsed DCs, 3×10^5 CD8+ T cells and 10 ng/ml of IL-7 (R&D System) in 0.5 ml of AIM-V/2% AS medium. Three days later, these cultures were supplemented with IL-2 (CHIRON) to a final concentration of 20 IU/ml. On days 7 and 14, the T cells were further stimulated with the autologous peptide-pulsed DCs. The DCs were prepared each time by the same way described above. CTLs were tested against peptide-pulsed TISI cells after the 3rd round of peptide stimulation on day 21 (Tanaka H et al., Br J Cancer 2001 Jan. 5, 84(1): 94-9; Umano Y et al., Br J Cancer 2001 Apr. 20, 84(8): 1052-7; Uchida N et al., Clin Cancer Res 2004 Dec. 15, 10(24): 8577-86; Watanabe T et al., Cancer Sci 2005 August, 96(8): 498-506; Suda T et al., Cancer Sci 2006 May, 97(5): 411-9).
as §1
CTLs for those peptides derived from FOXM1 were generated according to the protocols as described in “Materials and Methods”.

[3] = system: peptide-pulsed TISI cells; experiment: IFN-gamma ELISA assay of CTL lines stimulated with FOXM1 peptides; assay type: cell-based, human; conditions: target cells pulsed with corresponding peptide vs without peptide pulse
Procedure: CTLs were expanded in culture using the method similar to the one described by Riddell et al. (Walter E A et al., N Engl J Med 1995 Oct. 19, 333(16): 1038-44; Riddell S R et al., Nat Med 1996 February, 2(2): 216-23). A total of 5×10^4 CTLs were suspended in 25 ml of AIM-V/5% AS medium with 2 kinds of human B-lymphoblastoid cell lines, inactivated by Mitomycin C, in the presence of 40 ng/ml of anti-CD3 monoclonal antibody (Pharmingen). One day after initiating the cultures, 120 IU/ml of IL-2 were added to the cultures. The cultures were fed with fresh AIM-V/5% AS medium containing 30 IU/ml of IL-2 on days 5, 8 and 11 (Tanaka H et al., Br J Cancer 2001 Jan. 5, 84(1): 94-9; Umano Y et al., Br J Cancer 2001 Apr. 20, 84(8): 1052-7; Uchida N et al., Clin Cancer Res 2004 Dec. 15, 10(24): 8577-86; Watanabe T et al., Cancer Sci 2005 August, 96(8): 498-506; Suda T et al., Cancer Sci 2006 May, 97(5): 411-9).
as §1, §2

[4] = system: COS7 cells transfected with FOXM1 and HLA-A*2402; experiment: Specific CTL activity against target cells exogenously expressing FOXM1 and HLA-A*2402; assay type: cell-based, African green monkey
Description: The cDNA encoding an open reading frame of target genes or HLA-A*2402 was amplified by PCR. The PCR-amplified products were cloned into pCAGGS vector. The plasmids were transfected into COST, which is the target genes and HLA-A24 negative cell line, using lipofectamine 2000 (Invitrogen) according to the manufacturer's recommended procedures. After 2 days from transfection, the transfected cells were harvested with versene (Invitrogen) and used as the target cells (5×10^4 cells/well) for CTL activity assay.
The established CTL lines and clones raised against these peptides were examined for their ability to recognize target cells that endogenously express FOXM1 and HLA-A*2402 gene. […] COS7 cells transfected with either full length of FOXM1 genes or HLA-A*2402 were prepared as controls.

Substance	IFN-gamma production of peptide-induced CTLs compared with the control [2]	IFN-gamma production of CTL lines compared with the control [3]	also measured
PYSYmAMIQF (PYSY[code m]AMIQF) [SEQ ID NO: 31]	potent IFN-gamma production	potent IFN-gamma production	IFN-gamma production of CTL clones compared with the control ([1]; listed as FOXM1-A24-10-238): potent IFN-gamma production
RNMTIKTEL [SEQ ID NO: 7]	potent IFN-gamma production	–	–
SYMAmIQFAI (SYMA[code m]IQFAI) [SEQ ID NO: 16]	potent IFN-gamma production	potent IFN-gamma production	IFN-gamma production of CTL clones compared with the control ([1]; listed as FOXM1-A24-10-240): potent IFN-gamma production
RYLTLDQVF [SEQ ID NO: 1]	–	–	IFN-gamma production of peptide-induced CTLs compared with the control ([2]; listed as FOXM1-A24-9-316): not shown specific IFN-gamma production; also recorded: typical negative data of CTL response
KFPAGIKII [SEQ ID NO: 8]	potent IFN-gamma production	–	–
LTLDqVFKPL (LTLD[code q]VFKPL) [SEQ ID NO: 25]	potent IFN-gamma production	potent IFN-gamma production	–
IYTWIEDHF [SEQ ID NO: 2]	potent IFN-gamma production	potent IFN-gamma production	IFN-gamma production of CTL clones compared with the control ([1]; listed as FOXM1-A24-9-262): potent IFN-gamma production; specific CTL activity against COS7 cells transfected with both FOXM1 and HLA-A*2402 ([4]; CTLs raised by the peptide as effector cells, listed as FOXM1-A24-9-262): potent CTL activity; also recorded: specific CTL activity; specific CTL activity against control COS7 cells expressing either HLA-A*2402 or FOXM1 ([4]; controls transfected with only one gene): no significant specific CTL activity
VLQPsVKVPL (VLQP[code s]VKVPL) [SEQ ID NO: 30]	potent IFN-gamma production	–	–
